From US20250034216A1, “STEREOSELECTIVE COVALENT LIGANDS FOR ONCOGENIC AND IMMUNOLOGICAL PROTEINS” (The Scripps Research Institute, priority 2021, published 2025)

Assays:
Test in all cases: IA-DTB cysteine engagement
Assay type in all cases: binding
APOOL_C74 = target: T1, APOOL_C74 (Homo sapiens, UniProt Q6UXV4); details: 22Rv1 cells, 20 μM probe, 1 h, relative to DMSO
T1 construct: endogenous in cells; host or cells: 22Rv1
T1 sequence (Q6UXV4 28-268): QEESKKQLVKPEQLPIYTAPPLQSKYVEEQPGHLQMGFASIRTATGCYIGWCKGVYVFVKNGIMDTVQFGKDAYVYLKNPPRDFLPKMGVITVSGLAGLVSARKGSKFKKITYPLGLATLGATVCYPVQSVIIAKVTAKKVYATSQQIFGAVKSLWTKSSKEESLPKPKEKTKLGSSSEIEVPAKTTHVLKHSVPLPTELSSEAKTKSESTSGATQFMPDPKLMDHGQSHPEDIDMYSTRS
In short: (§1)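 First, cells are exposed to electrophilic probes in situ. Next, lysates are labeled with IA-DTB (1 h, ambient temperature), reduced, alkylated and trypsin-digested. Then, IA-DTB peptides are enriched on streptavidin, TMT-labeled and analyzed, with ratios taken against DMSO channels.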

CBX1_C60 = target: T2, CBX1_C60 (Homo sapiens, UniProt P83916); details: 22Rv1 cells, 20 μM probe, 1 h, relative to DMSO
T2 construct: endogenous in cells; host or cells: 22Rv1
In short: as §1

GSTO1_C32 = target: T3, GSTO1_C32 (Homo sapiens, UniProt P78417); details: 22Rv1 cells, 20 μM probe, 1 h, relative to DMSO
T3 construct: endogenous in cells; host or cells: 22Rv1
T3 sequence (P78417 1-241): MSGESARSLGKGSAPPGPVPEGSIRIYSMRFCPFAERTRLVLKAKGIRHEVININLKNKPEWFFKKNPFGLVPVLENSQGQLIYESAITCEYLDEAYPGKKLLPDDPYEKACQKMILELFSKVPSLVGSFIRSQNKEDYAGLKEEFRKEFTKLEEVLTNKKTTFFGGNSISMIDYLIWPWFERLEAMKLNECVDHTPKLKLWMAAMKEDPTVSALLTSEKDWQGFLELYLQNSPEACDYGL
In short: as §1

PDE3B_C311 = target: T4, PDE3B_C311 (Homo sapiens, UniProt Q13370); details: 22Rv1 cells, 20 μM probe, 1 h, relative to DMSO
T4 construct: endogenous in cells; host or cells: 22Rv1
In short: as §1

SLC25A16_C311 = target: T5, SLC25A16_C311 (Homo sapiens, UniProt P16260); details: 22Rv1 cells, 20 μM probe, 1 h, relative to DMSO
T5 construct: endogenous in cells; host or cells: 22Rv1
T5 sequence (P16260 1-332): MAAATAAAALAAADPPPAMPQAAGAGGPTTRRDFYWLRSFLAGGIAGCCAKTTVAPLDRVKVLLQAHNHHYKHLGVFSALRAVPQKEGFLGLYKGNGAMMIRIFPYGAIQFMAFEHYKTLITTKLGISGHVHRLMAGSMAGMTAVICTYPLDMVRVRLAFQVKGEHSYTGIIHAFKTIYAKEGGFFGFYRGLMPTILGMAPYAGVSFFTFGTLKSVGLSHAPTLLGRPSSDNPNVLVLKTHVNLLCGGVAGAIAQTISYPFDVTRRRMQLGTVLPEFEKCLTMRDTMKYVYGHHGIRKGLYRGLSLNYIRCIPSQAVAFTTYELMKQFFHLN
In short: as §1

SLC25A20_C283 = target: T6, SLC25A20_C283 (Homo sapiens, UniProt O43772); details: 22Rv1 cells, relative to DMSO; for % engagement SLC25A20_C283: 20 μM probe, 1 h; for % engagement SLC25A20_283: 5 μM probe, 1 h (FIG. 5B)
T6 construct: endogenous in cells; host or cells: 22Rv1
T6 sequence (O43772 1-301): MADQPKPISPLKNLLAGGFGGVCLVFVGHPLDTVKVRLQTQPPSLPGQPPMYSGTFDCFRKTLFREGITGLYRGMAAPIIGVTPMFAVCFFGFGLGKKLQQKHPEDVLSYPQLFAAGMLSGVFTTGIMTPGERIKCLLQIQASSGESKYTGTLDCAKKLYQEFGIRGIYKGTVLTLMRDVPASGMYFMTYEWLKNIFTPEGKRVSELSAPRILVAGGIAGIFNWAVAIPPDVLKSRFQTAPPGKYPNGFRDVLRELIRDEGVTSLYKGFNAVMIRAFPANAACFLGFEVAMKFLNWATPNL
In short: as §1

TTC3_C109 = target: T7, TTC3_C109 (Homo sapiens, UniProt P53804); details: 22Rv1 cells, 20 μM probe, 1 h, relative to DMSO
T7 construct: endogenous in cells; host or cells: 22Rv1
In short: as §1

T7 sequence (P53804 whole entry): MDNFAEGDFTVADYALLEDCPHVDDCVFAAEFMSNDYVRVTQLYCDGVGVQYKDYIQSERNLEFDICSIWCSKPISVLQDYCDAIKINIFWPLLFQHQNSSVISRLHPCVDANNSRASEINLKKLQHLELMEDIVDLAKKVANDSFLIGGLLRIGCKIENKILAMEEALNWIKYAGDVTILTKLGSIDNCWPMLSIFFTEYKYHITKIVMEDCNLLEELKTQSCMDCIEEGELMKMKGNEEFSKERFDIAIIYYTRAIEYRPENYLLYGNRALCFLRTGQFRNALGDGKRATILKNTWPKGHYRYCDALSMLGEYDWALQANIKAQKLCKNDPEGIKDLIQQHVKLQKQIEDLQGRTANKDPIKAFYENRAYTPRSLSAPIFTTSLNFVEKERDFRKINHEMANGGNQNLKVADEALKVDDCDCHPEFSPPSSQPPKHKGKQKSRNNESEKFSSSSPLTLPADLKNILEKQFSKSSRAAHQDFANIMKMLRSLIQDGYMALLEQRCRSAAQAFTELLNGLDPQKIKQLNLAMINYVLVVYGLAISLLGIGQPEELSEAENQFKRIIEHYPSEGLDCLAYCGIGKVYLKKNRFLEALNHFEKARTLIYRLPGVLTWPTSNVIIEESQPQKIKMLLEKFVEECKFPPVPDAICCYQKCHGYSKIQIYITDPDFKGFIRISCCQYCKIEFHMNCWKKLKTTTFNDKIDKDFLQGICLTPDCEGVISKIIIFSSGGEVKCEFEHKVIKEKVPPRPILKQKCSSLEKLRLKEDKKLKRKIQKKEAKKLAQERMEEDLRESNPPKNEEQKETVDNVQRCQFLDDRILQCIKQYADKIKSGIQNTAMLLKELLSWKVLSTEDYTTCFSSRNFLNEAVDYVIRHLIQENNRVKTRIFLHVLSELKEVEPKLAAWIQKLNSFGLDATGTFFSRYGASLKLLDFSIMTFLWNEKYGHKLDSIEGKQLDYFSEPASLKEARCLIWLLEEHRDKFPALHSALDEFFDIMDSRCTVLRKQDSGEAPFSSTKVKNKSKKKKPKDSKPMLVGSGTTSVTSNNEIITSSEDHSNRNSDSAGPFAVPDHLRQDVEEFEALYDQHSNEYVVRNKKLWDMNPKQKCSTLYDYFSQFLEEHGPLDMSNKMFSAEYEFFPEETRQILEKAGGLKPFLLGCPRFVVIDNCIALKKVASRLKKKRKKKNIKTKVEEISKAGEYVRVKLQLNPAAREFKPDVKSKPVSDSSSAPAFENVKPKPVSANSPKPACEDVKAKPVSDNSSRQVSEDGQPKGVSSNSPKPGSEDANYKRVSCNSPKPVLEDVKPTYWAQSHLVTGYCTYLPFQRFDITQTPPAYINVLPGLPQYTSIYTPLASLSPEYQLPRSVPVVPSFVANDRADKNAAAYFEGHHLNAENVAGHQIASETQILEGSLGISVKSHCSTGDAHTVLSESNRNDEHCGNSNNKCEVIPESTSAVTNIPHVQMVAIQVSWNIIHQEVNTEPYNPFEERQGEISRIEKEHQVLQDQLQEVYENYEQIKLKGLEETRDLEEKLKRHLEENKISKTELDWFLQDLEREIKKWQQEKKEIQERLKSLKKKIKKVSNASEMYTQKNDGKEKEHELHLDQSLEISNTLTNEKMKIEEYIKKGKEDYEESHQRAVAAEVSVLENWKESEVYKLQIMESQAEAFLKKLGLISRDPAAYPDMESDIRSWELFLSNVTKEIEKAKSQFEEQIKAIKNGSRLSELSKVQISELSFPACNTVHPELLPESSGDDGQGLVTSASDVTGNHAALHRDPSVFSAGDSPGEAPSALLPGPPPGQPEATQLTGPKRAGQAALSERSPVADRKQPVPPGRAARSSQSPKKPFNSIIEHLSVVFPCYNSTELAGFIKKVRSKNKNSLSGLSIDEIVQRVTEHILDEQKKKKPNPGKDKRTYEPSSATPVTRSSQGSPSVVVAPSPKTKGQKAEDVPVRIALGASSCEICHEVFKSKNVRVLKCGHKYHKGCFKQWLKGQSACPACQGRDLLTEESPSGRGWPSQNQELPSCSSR
T4 sequence (Q13370 whole entry): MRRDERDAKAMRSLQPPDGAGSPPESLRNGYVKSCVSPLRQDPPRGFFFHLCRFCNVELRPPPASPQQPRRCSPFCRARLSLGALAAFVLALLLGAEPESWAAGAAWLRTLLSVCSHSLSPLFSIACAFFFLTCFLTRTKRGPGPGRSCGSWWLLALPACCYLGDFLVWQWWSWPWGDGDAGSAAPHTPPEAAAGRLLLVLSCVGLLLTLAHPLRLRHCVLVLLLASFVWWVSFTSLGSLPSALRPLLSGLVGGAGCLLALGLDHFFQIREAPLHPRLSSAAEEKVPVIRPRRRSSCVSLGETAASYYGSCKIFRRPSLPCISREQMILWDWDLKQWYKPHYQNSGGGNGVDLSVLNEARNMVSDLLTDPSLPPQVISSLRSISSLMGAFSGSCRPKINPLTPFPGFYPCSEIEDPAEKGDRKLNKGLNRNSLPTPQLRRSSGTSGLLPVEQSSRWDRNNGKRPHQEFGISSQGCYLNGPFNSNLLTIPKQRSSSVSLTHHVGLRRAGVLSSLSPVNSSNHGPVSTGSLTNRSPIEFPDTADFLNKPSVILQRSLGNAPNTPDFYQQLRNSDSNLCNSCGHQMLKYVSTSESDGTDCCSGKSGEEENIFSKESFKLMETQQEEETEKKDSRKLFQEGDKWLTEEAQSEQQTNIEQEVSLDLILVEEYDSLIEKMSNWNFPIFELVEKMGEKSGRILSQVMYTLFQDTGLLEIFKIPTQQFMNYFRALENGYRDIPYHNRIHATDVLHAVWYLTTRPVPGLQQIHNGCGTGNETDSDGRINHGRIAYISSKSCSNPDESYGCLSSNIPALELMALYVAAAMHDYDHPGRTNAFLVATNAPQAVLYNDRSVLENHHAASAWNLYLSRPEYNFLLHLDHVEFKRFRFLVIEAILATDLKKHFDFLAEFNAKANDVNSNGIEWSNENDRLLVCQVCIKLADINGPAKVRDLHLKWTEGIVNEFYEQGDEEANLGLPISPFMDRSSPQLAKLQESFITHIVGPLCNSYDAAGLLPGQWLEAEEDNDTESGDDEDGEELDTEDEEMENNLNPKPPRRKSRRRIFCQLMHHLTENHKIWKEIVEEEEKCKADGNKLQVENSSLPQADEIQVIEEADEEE
T2 sequence (P83916 whole entry): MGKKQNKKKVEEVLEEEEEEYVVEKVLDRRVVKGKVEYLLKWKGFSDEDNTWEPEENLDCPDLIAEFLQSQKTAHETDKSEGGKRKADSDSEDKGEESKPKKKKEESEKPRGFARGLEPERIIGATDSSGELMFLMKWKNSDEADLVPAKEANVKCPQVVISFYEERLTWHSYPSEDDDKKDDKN

% engagement APOOL_C74 (APOOL_C74) [%] | % engagement CBX1_C60 (CBX1_C60) [%] | % engagement GSTO1_C32 (GSTO1_C32) [%] | % engagement PDE3B_C311 (PDE3B_C311) [%] | % engagement SLC25A16_C311 (SLC25A16_C311) [%] | % engagement SLC25A20_C283 (SLC25A20_C283) [%] | % engagement TTC3_C109 (TTC3_C109) [%] | % engagement SLC25A20_283 (SLC25A20_C283) [%] | Compound
64.5 | −14.5 | 82 | 58 | 37.5 | 92 | 54.5 | 82.75 | C=CC(=O)N1C[C@H](c2ccc(Br)cc2)[C@@H]1C(=O)Nc1cccc2cccnc12 [MY-1B, (2R,3S)-1-acryloyl-3-(4-bromophenyl)-N-(quinolin-8-yl)azetidine-2-carboxamide]
52 | 14.5 | 79 | 49 | 32 | 66 | 4.5 |  | C=CC(=O)N1C[C@H](c2ccc(Br)cc2)[C@H]1C(=O)Nc1cccc2cccnc12 [MY-3A, (2S,3S)-1-acryloyl-3-(4-bromophenyl)-N-(quinolin-8-yl)azetidine-2-carboxamide]
71.25 | 75 | 80.5 | 75.5 | 38.5 | −241 | 21.5 |  | C=CC(=O)N1C[C@H](c2ccc(Br)cc2)[C@H]1C(=O)Nc1cccc2cccnc12 [MY-3B, (2S,3S)-1-acryloyl-3-(4-bromophenyl)-N-(quinolin-8-yl)azetidine-2-carboxamide]

Second part, the molecule before the results:

Compound | % engagement APOOL_C74 (APOOL_C74) [%] | % engagement CBX1_C60 (CBX1_C60) [%] | % engagement GSTO1_C32 (GSTO1_C32) [%] | % engagement PDE3B_C311 (PDE3B_C311) [%] | % engagement SLC25A16_C311 (SLC25A16_C311) [%] | % engagement SLC25A20_C283 (SLC25A20_C283) [%] | % engagement TTC3_C109 (TTC3_C109) [%] | % engagement SLC25A20_283 (SLC25A20_C283) [%]
C=CC(=O)N1C[C@@H](c2ccc(Br)cc2)[C@H]1C(=O)Nc1cccc2cccnc12 [MY-1A, (2S,3R)-1-acryloyl-3-(4-bromophenyl)-N-(quinolin-8-yl)azetidine-2-carboxamide] | 52.75 | −11.5 | 22 | 57.5 | 79 | 37 | 80.5 | 
CC#CC(=O)N1C[C@H](c2ccc(Br)cc2)[C@@H]1C(=O)Nc1cccc2cccnc12 [MY-45B, (2R,3S)-3-(4-bromophenyl)-1-(but-2-ynoyl)-N-(quinolin-8-yl)azetidine-2-carboxamide] |  |  |  |  |  |  |  | 20.50
